Source: article PMC8673480 (Journal of medicinal chemistry, 2021)

What was measured:
[1] = biological target: SARS-CoV-2 3CLpro (Severe acute respiratory syndrome coronavirus 2, UniProt P0DTD1); experiment: biochemical; type: biochemical
[2] = biological target: MERS-CoV 3CLpro (Middle East respiratory syndrome-related coronavirus, UniProt K9N7C7); experiment: biochemical
[3] = Nonspecific cytotoxic effects / in vitro cytotoxicity; type: cell-based; conditions: human, HEK293T cells
[4] = tested on: PRRSV; experiment: Inhibition of replication of PRRSV; type: cell-based, porcine respiratory and reproductive syndrome virus (PRRSV)

Sequence of MERS-CoV 3CLpro (K9N7C7 3248-3553 limits assumed): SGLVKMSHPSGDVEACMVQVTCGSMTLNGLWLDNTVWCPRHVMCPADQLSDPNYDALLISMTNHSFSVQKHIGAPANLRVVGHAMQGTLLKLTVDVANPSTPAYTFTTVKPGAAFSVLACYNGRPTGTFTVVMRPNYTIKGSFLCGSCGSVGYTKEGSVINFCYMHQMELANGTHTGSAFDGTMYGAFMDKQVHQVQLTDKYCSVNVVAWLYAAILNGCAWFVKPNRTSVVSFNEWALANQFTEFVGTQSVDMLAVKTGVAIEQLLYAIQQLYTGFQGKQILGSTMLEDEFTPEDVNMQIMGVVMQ

## CCCC1CCC(COC(=O)NC(CC(C)C)C(=O)NC(C=O)CC2CCNC2=O)CC1 [Compound 8b, ((1r,4R)-4-Propylcyclohexyl) methyl ((2S)-4-methyl-1-oxo-1-(((2S)-1-oxo-3-(2-oxopyrrolidin-3-yl)propan-2-yl)amino)pentan-2-yl) carbamate]
[1]
  IC50: 200 ± 30 nM
[2]
  IC50: 60 ± 10 nM
[3]
  CC50 at 72 h: 43000 ± 9000 nM

## CC(C)C[C@H](NC(=O)OCc1ccccc1)C(=O)N[C@@H](C[C@@H]1CCNC1=O)C(O)S(=O)(=O)[O-].[Na+] (some centres unmarked) [GC376]
[4]
  inhibition of the replication of PRRSV: none of them resulted in the reduction of viral replication

## CC(C)C[C@H](NC(=O)OC(C)(C)C1CCC(F)(F)CC1)C(=O)N[C@@H](C[C@@H]1CCNC1=O)C(O)S(=O)(=O)[O-].[Na+] (stereo partly drawn) [Compound 13c, Sodium (2S)-2-((S)-2-((((2-(4,4-difluorocyclohexyl)propan-2-yl)oxy)carbonyl)amino)-4-methylpentanamido)-1-hydroxy-3-((S)-2-oxopyrrolidin-3-yl)propane-1-sulfonate]
[1]
  IC50 higher than those of 12b and 14c: ~ 4 fold
